Test results taken from US20170056336A1, “CO-TARGETING ANDROGEN RECEPTOR SPLICE VARIANTS AND MTOR SIGNALING PATHWAY FOR THE TREATMENT OF CASTRATION-RESISTANT PROSTATE CANCER” (British Columbia Cancer Agency Branch, priority 2015, published 2017).
pIC50: −log10 of the molar value.

Columns and labels:
AR-V7 = molecular target: T1, AR-V7 (Homo sapiens, UniProt P10275); experiment: PB-luciferase assay in Cos-1 cells transfected with AR-V7; type: cell-based; details: 24 h, serum-free
T1 construct: expressed in transfected cells; host or cells: Cos-1
T1 sequence (P10275 1-644 isoform P10275-3): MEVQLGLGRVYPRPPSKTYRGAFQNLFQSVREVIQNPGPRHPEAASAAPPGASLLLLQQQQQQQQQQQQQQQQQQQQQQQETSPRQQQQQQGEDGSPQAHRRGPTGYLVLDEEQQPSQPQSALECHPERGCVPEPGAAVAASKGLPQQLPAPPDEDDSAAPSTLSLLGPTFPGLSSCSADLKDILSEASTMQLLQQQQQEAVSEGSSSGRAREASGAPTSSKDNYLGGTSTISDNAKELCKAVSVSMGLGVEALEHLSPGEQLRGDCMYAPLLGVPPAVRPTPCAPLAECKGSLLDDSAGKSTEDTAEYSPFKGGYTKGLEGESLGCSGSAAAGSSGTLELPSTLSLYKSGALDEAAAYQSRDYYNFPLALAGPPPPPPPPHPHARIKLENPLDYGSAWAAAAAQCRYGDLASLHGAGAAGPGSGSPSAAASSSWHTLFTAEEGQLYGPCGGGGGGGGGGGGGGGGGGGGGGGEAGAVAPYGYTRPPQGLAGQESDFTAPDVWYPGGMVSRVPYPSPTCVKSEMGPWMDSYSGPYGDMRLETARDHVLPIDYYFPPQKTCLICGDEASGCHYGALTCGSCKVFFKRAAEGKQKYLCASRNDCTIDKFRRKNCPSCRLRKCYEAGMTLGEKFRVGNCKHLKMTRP
Excerpt: (§1) Ectopic protein levels of AR-V7 and AR-V567 in Cos-1 cells are shown relative to endogenous levels of FL-AR in LNCaP cells.

AR = molecular target: T2, AR (Homo sapiens, UniProt P10275, T878A); experiment: PSA-, ARR3-, PB-luciferase AR reporter assay in LNCaP95 cells; details: LNCaP95 cells treated with androgen, BEZ-235 15 nM
T2 sequence (P10275 1-920 T878A): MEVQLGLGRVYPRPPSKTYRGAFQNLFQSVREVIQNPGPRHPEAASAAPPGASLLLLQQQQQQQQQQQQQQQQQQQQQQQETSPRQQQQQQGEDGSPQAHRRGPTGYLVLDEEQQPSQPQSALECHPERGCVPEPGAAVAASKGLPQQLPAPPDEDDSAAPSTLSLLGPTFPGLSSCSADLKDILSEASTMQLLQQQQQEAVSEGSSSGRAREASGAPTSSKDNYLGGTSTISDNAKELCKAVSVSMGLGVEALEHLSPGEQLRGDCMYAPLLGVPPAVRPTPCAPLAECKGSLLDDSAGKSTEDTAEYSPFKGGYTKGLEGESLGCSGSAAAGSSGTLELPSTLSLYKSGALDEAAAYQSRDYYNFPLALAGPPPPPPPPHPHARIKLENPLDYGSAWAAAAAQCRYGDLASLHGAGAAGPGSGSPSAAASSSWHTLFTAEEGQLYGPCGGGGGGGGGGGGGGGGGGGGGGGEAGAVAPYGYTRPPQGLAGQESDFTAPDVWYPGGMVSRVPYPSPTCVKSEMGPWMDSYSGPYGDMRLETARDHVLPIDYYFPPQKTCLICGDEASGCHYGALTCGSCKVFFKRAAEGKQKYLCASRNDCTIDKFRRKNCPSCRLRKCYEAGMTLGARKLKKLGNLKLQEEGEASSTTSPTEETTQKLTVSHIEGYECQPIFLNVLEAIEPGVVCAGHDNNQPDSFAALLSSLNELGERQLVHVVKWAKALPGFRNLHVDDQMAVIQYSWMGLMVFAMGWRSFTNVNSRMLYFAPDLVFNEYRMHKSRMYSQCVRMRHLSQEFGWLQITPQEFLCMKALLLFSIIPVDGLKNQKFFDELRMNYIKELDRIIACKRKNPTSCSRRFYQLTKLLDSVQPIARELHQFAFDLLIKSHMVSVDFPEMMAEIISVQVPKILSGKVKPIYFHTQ

[1] = system: genes regulated by FL-AR and AR-V7 in LNCaP95 cells; experiment: Gene expression analysis (quantitative real-time RT-PCR) in LNCaP95 cells; type: cell-based, human
CDK1 = CDK1 (Homo sapiens, UniProt P06493); details: higher concentrations; read-out: concentration inhibiting CDK1; cited from earlier work
FL-AR = molecular target: T3, FL-AR (Homo sapiens, UniProt P10275, T878A); experiment: PSA-, ARR3-, PB-luciferase AR reporter assay in LNCaP cells
T3 sequence (P10275 1-920 T878A): T2 sequence (P10275 1-920 T878A)

AR-V567 = molecular target: T4, AR-V567 (Homo sapiens, UniProt P10275); experiment: PB-luciferase assay in Cos-1 cells transfected with AR-V567; type: cell-based; details: 24 h, serum-free
T4 construct: expressed in transfected cells; host or cells: Cos-1
T4 sequence (P10275 with tags, fused parts or gaps limits assumed): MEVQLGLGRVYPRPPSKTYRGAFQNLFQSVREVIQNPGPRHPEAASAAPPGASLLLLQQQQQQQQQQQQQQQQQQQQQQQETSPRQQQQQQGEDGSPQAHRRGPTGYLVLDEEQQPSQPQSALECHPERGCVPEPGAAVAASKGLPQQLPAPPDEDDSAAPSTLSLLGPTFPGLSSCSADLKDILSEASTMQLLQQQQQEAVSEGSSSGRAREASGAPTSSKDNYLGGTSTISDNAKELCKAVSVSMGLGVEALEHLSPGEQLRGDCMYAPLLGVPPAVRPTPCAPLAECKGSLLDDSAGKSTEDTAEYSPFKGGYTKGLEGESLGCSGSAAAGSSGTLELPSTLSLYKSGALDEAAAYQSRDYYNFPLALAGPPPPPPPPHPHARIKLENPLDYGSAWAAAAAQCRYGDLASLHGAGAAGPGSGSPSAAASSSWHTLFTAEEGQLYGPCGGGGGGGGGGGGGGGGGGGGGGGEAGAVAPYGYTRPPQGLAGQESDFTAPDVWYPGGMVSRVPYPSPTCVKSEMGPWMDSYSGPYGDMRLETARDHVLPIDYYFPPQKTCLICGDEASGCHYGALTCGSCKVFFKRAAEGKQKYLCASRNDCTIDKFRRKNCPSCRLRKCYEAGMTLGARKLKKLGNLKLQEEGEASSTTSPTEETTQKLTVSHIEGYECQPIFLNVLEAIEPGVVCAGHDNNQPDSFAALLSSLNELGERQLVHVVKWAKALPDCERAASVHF
Excerpt: as §1

LNCaP95 cells = experiment: Cell proliferation BrdU immunoassay; type: cell-based, human; details: R1881 0.1 nM, 48 h, serum-free, Compound A 25 uM, enzalutamide 10 uM, BEZ-235 15 nM, everolimus 10 nM

CDK1, sequence (P06493 whole entry, species assumed): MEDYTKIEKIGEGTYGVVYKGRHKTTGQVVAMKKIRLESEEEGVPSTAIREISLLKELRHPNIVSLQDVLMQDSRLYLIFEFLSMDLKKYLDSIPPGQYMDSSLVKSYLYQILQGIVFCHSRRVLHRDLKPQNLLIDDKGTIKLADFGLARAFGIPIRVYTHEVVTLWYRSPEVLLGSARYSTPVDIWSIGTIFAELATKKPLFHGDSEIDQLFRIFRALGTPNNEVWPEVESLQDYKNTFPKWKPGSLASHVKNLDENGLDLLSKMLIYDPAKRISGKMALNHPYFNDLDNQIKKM
CDK1, sequence (P14635 whole entry partner, species assumed): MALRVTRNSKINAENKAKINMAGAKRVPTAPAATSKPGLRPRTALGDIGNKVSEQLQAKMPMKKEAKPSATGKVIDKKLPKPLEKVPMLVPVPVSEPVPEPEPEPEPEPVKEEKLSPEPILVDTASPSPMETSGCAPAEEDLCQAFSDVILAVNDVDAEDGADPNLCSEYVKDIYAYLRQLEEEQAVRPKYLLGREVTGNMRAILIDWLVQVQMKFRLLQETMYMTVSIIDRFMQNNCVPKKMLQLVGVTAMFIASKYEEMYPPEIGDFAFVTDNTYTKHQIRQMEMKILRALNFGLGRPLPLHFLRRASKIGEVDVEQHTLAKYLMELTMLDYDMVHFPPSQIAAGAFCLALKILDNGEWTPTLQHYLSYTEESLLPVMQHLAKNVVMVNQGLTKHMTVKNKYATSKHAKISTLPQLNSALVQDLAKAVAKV

Cn1c(=O)n(-c2ccc(C(C)(C)C#N)cc2)c2c3cc(-c4cnc5ccccc5c4)ccc3ncc21 [BEZ-235, 2-methyl-2-[4-(3-methyl-2-oxo-8-quinolin-3-ylimidazo[4,5-c]quinolin-1-yl)phenyl]propanenitrile]
transcriptional activity of AR-V7 (AR-V7): no effect | PSA-, ARR3- and PB-luciferase activities (AR): significantly increased | TMPRSS2 or FKBP5 transcripts in response to BEZ-235 [1]: No similar effects | levels of FL-AR transcript [1]: did not increase | increase in transcript levels of AR-V7 ([1]; absence of androgen): greater than 2 fold | levels of PSA transcript ([1]; absence of androgen): induced | transcript levels of AR-V7 target genes (UBE2C, CDC20, Akt1) ([1]; absence of androgen): consistently reduced | androgen-induced levels of PSA transcripts ([1]; compared to androgen alone): significantly increased | UBE2C levels ([1]; monotherapy, regardless of androgen): attenuated | pIC50 (CDK1): < 5.00 | activity of FL-AR in response to androgen (FL-AR): did not enhance | transcriptional activity of AR-V567 (AR-V567): no effect | proliferation (BrdU incorporation) (LNCaP95 cells): inhibited
